Assay results: patent publication US8063240B2, “Prostaglandin E1 and E2 analogs for the treatment of various medical conditions” (Cayman Chemical Company, Incorporated, priority 2007, dated 2011)

Key:
human EP1 receptor = target: T1, human EP1 receptor (Homo sapiens, UniProt P34995); experiment: Functional Assay #1AGii (Cerep EP1 Agonist Assay), cytosolic Ca2+ mobilization, fluorimetric detection; assay type: cell-based; settings: mean of N=2, percent of control response to 100 nM PGE2, transfected HEK-293 cells
T1 construct: host or cells: HEK-293
T1 sequence (P34995 1-402): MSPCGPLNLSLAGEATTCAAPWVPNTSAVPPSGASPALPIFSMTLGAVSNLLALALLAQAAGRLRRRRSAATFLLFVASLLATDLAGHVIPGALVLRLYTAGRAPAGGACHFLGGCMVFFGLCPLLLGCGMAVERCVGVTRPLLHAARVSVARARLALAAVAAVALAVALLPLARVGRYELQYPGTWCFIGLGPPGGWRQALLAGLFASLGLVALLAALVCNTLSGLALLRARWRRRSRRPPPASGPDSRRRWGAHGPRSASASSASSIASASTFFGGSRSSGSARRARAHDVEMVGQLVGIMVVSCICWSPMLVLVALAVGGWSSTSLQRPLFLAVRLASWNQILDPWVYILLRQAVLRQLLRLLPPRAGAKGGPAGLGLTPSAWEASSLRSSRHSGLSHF
Source text: Alternative EP1 Receptor Agonism Assay
(Cerep, Catalog reference 722-55a; UNGRIN, M. D., SINGH L. M. R., STOCCO, R., SAS, D. E. and ABRAMOVITZ, M. (1999), An automated aequorin luminescence-based functional calcium assay for G-Protein-Coupled Receptors. Analytical Biochem., 272, 34.)
Evaluation of the agonist activity of compounds at the human EP1 receptor in transfected HEK-293 cells, determined by measuring their effect on cytosolic Ca^2+ ion mobilization using a fluorimetric detection method.
The cells are suspended in DMEM buffer (Invitrogen), then distributed in microplates at a density of 3.10^4 cells/well. The fluorescent probe (Fluo4 NR, Invitrogen) mixed with probenicid in HBSS buffer (Invitrogen) complemented with 20 mM Hepes (Invitrogen) (pH 7.4) is then added into each well and equilibrated with the cells for 30 minutes at 37° C. then 30 minutes at 22° C. Thereafter, the assay plates are positioned in a microplate reader (CellLux, PerkinElmer) which is used for the addition of the test compound, reference agonist or HBSS buffer (basal control), and the measurements of changes in fluorescence intensity which varies proportionally to the free cytosolic Ca^2+ ion concentration. For stimulated control measurements, PGE2 at 100 nM is added in separate assay wells.
The results are expressed as a percent of the control response to 100 nM PGE2. The standard reference agonist is PGE2, which is tested in each experiment at several concentrations to generate a concentration-response curve from which its EC50 value is calculated.

human EP2 receptor = target: T2, human EP2 receptor (Homo sapiens, UniProt P43116); experiment: Functional Assay #2AGii (Cerep EP2 Agonist Assay), cAMP production, HTRF detection; assay type: cell-based; settings: mean of N=2, percent of control response to 10 μM PGE2, transfected CHO cells
T2 construct: host or cells: CHO
T2 sequence (P43116 whole entry): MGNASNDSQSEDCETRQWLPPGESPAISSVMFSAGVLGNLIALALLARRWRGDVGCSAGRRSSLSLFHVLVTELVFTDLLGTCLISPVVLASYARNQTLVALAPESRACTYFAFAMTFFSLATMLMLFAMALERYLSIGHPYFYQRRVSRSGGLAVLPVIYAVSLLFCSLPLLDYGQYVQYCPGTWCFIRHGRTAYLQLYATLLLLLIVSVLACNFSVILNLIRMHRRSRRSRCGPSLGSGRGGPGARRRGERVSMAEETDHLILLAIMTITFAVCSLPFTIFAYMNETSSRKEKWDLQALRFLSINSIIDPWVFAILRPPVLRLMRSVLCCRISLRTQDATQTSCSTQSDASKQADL
Source text: Alternative EP2 Receptor Agonism Assay
(Cerep, Catalog reference 758-54a; WILSON, R. J., RHODES, S. A., WOOD, R. L., SHIELD, V. J., NOEL, L. S., GRAY, D. W. and GILES H. (2004), Functional pharmacology of human prostanoid EP2 and EP4 receptors, Eur. J. Pharmacol., 501, 49.)
Evaluation of the agonist activity of compounds at the human EP2 receptor in transfected CHO cells, determined by measuring their effects on cAMP production using the HTRF detection method.
(§1) The cells are suspended in HBSS buffer (Invitrogen) complemented with HEPES 20 mM (pH 7.4) and 500 μM IBMX, then distributed in microplates at a density of 10^4 cells/well and incubated for 30 minutes at 37° C. in the absence (control) or presence of the test compound or the reference agonist. For stimulated control measurements, separate assay wells contain 10 μM PGE2. Following incubation, the cells are lysed and the fluorescence acceptor (D2-labeled cAMP) and fluorescence donor (anti-cAMP antibody labeled with europium cryptate) are added. After 60 minutes at room temperature, the fluorescence transfer is measured at λex=337 nm and λem=620 and 665 nm using a microplate reader (Rubystar, BMG). The cAMP concentration is determined by dividing the signal measured at 665 nm by that measured at 620 nm (ratio). The results are expressed as a percent of the control response to 10 μM PGE2. The standard reference agonist is PGE2, which is tested in each experiment at several concentrations to generate a concentration-response curve from which its EC50 value is calculated.

human EP4 receptor = target: T3, human EP4 receptor (Homo sapiens, UniProt P35408); experiment: Functional Assay #4AGii (Cerep EP4 Agonist Assay), cAMP production, HTRF detection; assay type: cell-based; settings: mean of N=2, percent of control response to 1 μM PGE2, transfected CHO cells
T3 construct: host or cells: CHO
T3 sequence (P35408 whole entry): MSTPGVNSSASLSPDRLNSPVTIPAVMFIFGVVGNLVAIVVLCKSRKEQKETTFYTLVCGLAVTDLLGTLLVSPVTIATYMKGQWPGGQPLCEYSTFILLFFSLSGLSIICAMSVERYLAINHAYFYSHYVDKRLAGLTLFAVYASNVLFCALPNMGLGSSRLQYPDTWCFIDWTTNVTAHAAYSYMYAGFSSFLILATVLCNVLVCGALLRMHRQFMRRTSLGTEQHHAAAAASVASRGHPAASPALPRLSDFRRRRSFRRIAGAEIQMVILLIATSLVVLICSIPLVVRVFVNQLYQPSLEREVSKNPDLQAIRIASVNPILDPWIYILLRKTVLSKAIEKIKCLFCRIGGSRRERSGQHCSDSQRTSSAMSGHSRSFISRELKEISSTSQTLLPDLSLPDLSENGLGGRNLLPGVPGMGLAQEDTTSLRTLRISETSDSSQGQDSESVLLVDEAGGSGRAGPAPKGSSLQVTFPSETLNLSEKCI
Procedure: Alternative EP4 Receptor Agonism Assay
(Cerep, Catalog Reference 758-49a; Wilson, R. J., et al., Ibid.)
Evaluation of the agonist activity of compounds at the human EP4 receptor in transfected CHO cells, determined by measuring their effects on cAMP production using the HTRF detection method.
as §1, with “2.10^4” for “10^4”, “10” for “30”, “room temperature” for “37° C.”, “1” for “10”

[1] = Stability of purified HPLC peak left overnight in mobile phase; assay type: physicochemical; settings: mobile phase 70:30:0.1 MeOH/H2O/AcOH
Procedure: Mobile phase: 70:30:0.1 MeOH/H2O/AcOH—premixed
Sample concentration: sample was dissolved at 100 mg/mL in 70:30 MeOH/H2O Peaks were collected manually at 0° C. and purified batches were kept at −20° C. at the end of each day. Peak 2 (title compound, 14.6 minute retention time) degrades about 6% when left at 4° C. overnight in mobile phase and degrades minimally (<1%) when left at −20° C. overnight. […] LCMS data of both products confirm masses consistent with the designations presented herein.

Compound | % Control Agonist response @ compound concentration (human EP1 receptor; 0.1 μM) [%] | % Control Agonist response @ compound concentration (human EP1 receptor; 1 μM) [%] | % Control Agonist response @ compound concentration (human EP1 receptor; 10 μM) [%] | % Control Agonist response @ compound concentration (human EP2 receptor; 0.1 μM) [%] | % Control Agonist response @ compound concentration (human EP2 receptor; 1 μM) [%] | % Control Agonist response @ compound concentration (human EP2 receptor; 10 μM) [%] | % Control Agonist response @ compound concentration (human EP4 receptor; 0.1 μM) [%] | % Control Agonist response @ compound concentration (human EP4 receptor; 1 μM) [%] | % Control Agonist response @ compound concentration (human EP4 receptor; 10 μM) [%] | degradation when left overnight in mobile phase ([1]; 4° C. overnight) | degradation when left overnight in mobile phase ([1]; −20° C. overnight) [%]
O=C(O)CCC/C=C\C[C@H]1C(=O)C[C@@H](O)[C@@H]1/C=C/[C@@H](O)c1cc2ccccc2s1 [Example 7, (Z)-7-((1R,2R,3R)-2-((R,E)-3-(benzo[b]thiophen-2-yl)-3-hydroxyprop-1-enyl)-3-hydroxy-5-oxocyclopentyl)hept-5-enoic Acid] | 80 | 88 | 144 | 0 | −1 | 5 | −1 | 4 | 29 | – | –
O=C(O)CCC/C=C\C[C@H]1C(=O)C[C@H](F)[C@@H]1/C=C/[C@@H](O)C1Cc2ccccc2C1 (single isomer, unassigned) [Example 17] | – | – | – | – | – | – | – | – | – | about 6% | < 1
